From ChEMBL document CHEMBL3046003, “Synthesis and antifungal activities of novel 5-amino-6-arylamino-1H-pyrazolo[3,4-d]pyrimidin-4(5H)-one derivatives” (2008)

Tests used:
Format in all cases: functional
Conditions in all cases: read-out: GI
[1] = tested on: Sclerotinia sclerotiorum; experiment: Antifungal activity against Sclerotinia sclerotiorum assessed as growth inhibition at 10 mg/L
[2] = tested on: Pyricularia oryzae; experiment: Antifungal activity against Magnaporthe oryzae assessed as growth inhibition at 50 mg/L
[3] = tested on: Botrytis cinerea; experiment: Antifungal activity against Botryotinia fuckeliana assessed as growth inhibition at 10 mg/L
[4] = tested on: Fusarium graminearum; experiment: Antifungal activity against Fusarium graminearum assessed as growth inhibition at 50 mg/L
[5] = tested on: Botrytis cinerea; experiment: Antifungal activity against Botryotinia fuckeliana assessed as growth inhibition at 50 mg/L
[6] = tested on: Sclerotinia sclerotiorum; experiment: Antifungal activity against Sclerotinia sclerotiorum assessed as growth inhibition at 50 mg/L

SMILES	inhibition of growth at 10 µg/mL [1] [%]	inhibition of growth at 50 µg/mL [2] [%]	inhibition of growth at 10 µg/mL [3] [%]	inhibition of growth at 50 µg/mL [4] [%]	inhibition of growth at 50 µg/mL [5] [%]	inhibition of growth at 50 µg/mL [6] [%]
CSc1nn(-c2ccccc2)c2nc3n(-c4cccc(Cl)c4)cnn3c(=O)c12	82	57	71	74	99	100
CSc1nn(-c2ccccc2)c2nc3n(-c4cccc(C)c4)cnn3c(=O)c12	73	70	74	50	97	98
CSc1nn(-c2ccccc2)c2nc(Nc3ccc(F)cc3)n(N)c(=O)c12	72	43	9	20	45	94
CSc1nn(-c2ccccc2)c2nc(Nc3ccccc3F)n(N)c(=O)c12	73	62	69	51	93	97
CSc1nn(-c2ccccc2)c2nc(Nc3cccc(F)c3)n(N)c(=O)c12	75	43	56	43	87	96
Nn1c(Nc2ccc(F)cc2)nc2c(c(SCc3ccccc3)nn2-c2ccccc2)c1=O	52	29	12	34	55	83
Nn1c(Nc2ccccc2F)nc2c(c(SCc3ccccc3)nn2-c2ccccc2)c1=O	33	14	18	40	64	71
Nn1c(Nc2cccc(F)c2)nc2c(c(SCc3ccccc3)nn2-c2ccccc2)c1=O	40	14	20	46	69	82
CSc1nn(-c2ccccc2)c2nc(Nc3ccccc3)n(N)c(=O)c12	51	36	3	14	13	84
Nn1c(Nc2ccccc2)nc2c(c(SCc3ccccc3)nn2-c2ccccc2)c1=O	31	50	12	29	60	72
CSc1nn(-c2ccccc2)c2nc(Nc3cccc(Cl)c3)n(N)c(=O)c12	76	96	73	57	99	98
CSc1nn(-c2ccccc2)c2nc(Nc3cccc(C)c3)n(N)c(=O)c12	52	14	36	46	71	86
CSc1nn(-c2ccccc2)c2nc3n(-c4ccc(F)cc4)cnn3c(=O)c12	70	9	45	49	71	93
CSc1nn(-c2ccccc2)c2nc3n(-c4ccccc4F)cnn3c(=O)c12	19	5	31	26	60	50
CSc1nn(-c2ccccc2)c2nc3n(-c4cccc(F)c4)cnn3c(=O)c12	83	29	70	74	91	100
O=c1c2c(SCc3ccccc3)nn(-c3ccccc3)c2nc2n(-c3ccc(F)cc3)cnn12	32	43	30	37	67	75
O=c1c2c(SCc3ccccc3)nn(-c3ccccc3)c2nc2n(-c3ccccc3F)cnn12	75	14	27	37	60	96
O=c1c2c(SCc3ccccc3)nn(-c3ccccc3)c2nc2n(-c3cccc(F)c3)cnn12	5	0	5	34	29	29
CSc1nn(-c2ccccc2)c2nc3n(-c4ccccc4)cnn3c(=O)c12	83	80	70	66	99	100
O=c1c2c(SCc3ccccc3)nn(-c3ccccc3)c2nc2n(-c3ccccc3)cnn12	67	29	49	60	73	93
c1ccc2[nH]c(-c3cscn3)nc2c1 [THIABENDAZOLE]	–	87	–	100	100	100
